The assay has as its target Replicase polyprotein 1ab (Severe acute respiratory syndrome coronavirus, UniProt P0C6X7). Nature of the assay: Inhibition Assay. Particulars: pH 7.5. From the text: Inhibition assay against SARS-CoV 3CL protease, a fluorometric assay was utilized to determine the inhibition constants of the samples.

A value given as a limit tells only on which side of the number the result lay.

As for `CNc1ccc(C(O)Cn2nnc3ccccc32)cc1` (stereo not given) [Benzotriazole ester, 19], the Ki (usually the equilibrium dissociation constant of an inhibitor or competing ligand from its target) is greater than 50 µM.
Regarding `Nc1ccc(C(O)Cn2nnc3ccccc32)cc1` (stereo not given) [Benzotriazole ester, 16], the IC50 (commonly the concentration needed to halve the response being measured) was greater than 50 µM.
`O=C(Cn1nnc2ccccc21)c1ccc([N+](=O)[O-])cc1` [Benzotriazole ester, 13] had an IC50 greater than 50 µM.
On the same count and under the same terms, the figure for `Nc1ccc(C(=O)Cn2nnc3ccccc32)cc1` [Benzotriazole ester, 15] is greater than 50 µM.
Compound `CN(C)c1ccc(C(O)Cn2nnc3ccccc32)cc1` (stereo not given) [Benzotriazole ester, 20] yielded a Ki greater than 50 µM.

Values taken from BindingDB's records for doi:10.1016/j.chembiol.2005.12.008 (Academia Sinica, 2006).
